Test results as given in PubChem BioAssay AID1259407 (Chemical Carcinogenesis Research Information System (CCRIS), 2018).
Calls of active or inactive are those of the source. How the calls were made is not given here.

Tested on: CCRIS mutagenicity, Ames/micronucleus/aberration tests
Experiment: CCRIS mutagenicity studies
[1] = Test System: AMES SALMONELLA TYPHIMURIUM, Strain/Indicator: TA98, Metabolic Activation: NONE, Method: STANDARD PLATE
[2] = Test System: AMES SALMONELLA TYPHIMURIUM, Strain/Indicator: TA98, Metabolic Activation: RAT, LIVER, S-9, AROCLOR 1254, Method: STANDARD PLATE
[3] = Test System: AMES SALMONELLA TYPHIMURIUM, Strain/Indicator: TA100, Metabolic Activation: NONE, Method: STANDARD PLATE
[4] = Test System: AMES SALMONELLA TYPHIMURIUM, Strain/Indicator: TA100, Metabolic Activation: RAT, LIVER, S-9, AROCLOR 1254, Method: STANDARD PLATE

In the case of Cc1ccc(C)c(C)c1, the mutagenic call (Test System: AMES SALMONELLA TYPHIMURIUM, Strain/Indicator: TA97A, Metabolic Activation: NONE, Method: STANDARD PLATE) is reported as “inactive; negative”, the mutagenic call (Test System: AMES SALMONELLA TYPHIMURIUM, Strain/Indicator: TA97A, Metabolic Activation: RAT, LIVER, S-9, AROCLOR 1254, Method: STANDARD PLATE) is reported as “inactive; negative” and the mutagenic call [1] is reported as “inactive; negative”. For the same compound, the mutagenic call [2] was “inactive; negative”, the mutagenic call [3] was “inactive; negative” and the mutagenic call [4] was “inactive; negative”. For the same compound, the mutagenic call (Test System: AMES SALMONELLA TYPHIMURIUM, Strain/Indicator: TA102, Metabolic Activation: NONE, Method: STANDARD PLATE) was “inactive; negative” and the mutagenic call (Test System: AMES SALMONELLA TYPHIMURIUM, Strain/Indicator: TA102, Metabolic Activation: RAT, LIVER, S-9, AROCLOR 1254, Method: STANDARD PLATE) was “inactive; negative”.

In the case of c1ccc2cnncc2c1, the mutagenic call (Test System: AMES SALMONELLA TYPHIMURIUM, Strain/Indicator: TA98, Metabolic Activation: HAMSTER, LIVER, S-9, AROCLOR 1254, Method: STANDARD PLATE) is reported as “inactive; negative”, the mutagenic call (Test System: AMES SALMONELLA TYPHIMURIUM, Strain/Indicator: TA98, Metabolic Activation: NONE, Method: PREINCUBATION) is reported as “inactive; negative” and the mutagenic call [1] is reported as “inactive; negative”. The mutagenic call [2] was “inactive; negative”, the mutagenic call (Test System: AMES SALMONELLA TYPHIMURIUM, Strain/Indicator: TA98, Metabolic Activation: RAT, LIVER, S-9, PCB, Method: PREINCUBATION) was “inactive; negative” and the mutagenic call (Test System: AMES SALMONELLA TYPHIMURIUM, Strain/Indicator: TA100, Metabolic Activation: HAMSTER, LIVER, S-9, AROCLOR 1254, Method: STANDARD PLATE) was “inactive; negative”. For the same compound, the mutagenic call (Test System: AMES SALMONELLA TYPHIMURIUM, Strain/Indicator: TA100, Metabolic Activation: NONE, Method: PREINCUBATION) was “inactive; negative”, the mutagenic call [3] was “inactive; negative” and the mutagenic call [4] was “inactive; negative”. For the same compound, the mutagenic call (Test System: AMES SALMONELLA TYPHIMURIUM, Strain/Indicator: TA100, Metabolic Activation: RAT, LIVER, S-9, PCB, Method: PREINCUBATION) was “inactive; negative”, the mutagenic call (Test System: AMES SALMONELLA TYPHIMURIUM, Strain/Indicator: TA1535, Metabolic Activation: HAMSTER, LIVER, S-9, AROCLOR 1254, Method: STANDARD PLATE) was “inactive; negative” and the mutagenic call (Test System: AMES SALMONELLA TYPHIMURIUM, Strain/Indicator: TA1535, Metabolic Activation: NONE, Method: STANDARD PLATE) was “inactive; negative”. The mutagenic call (Test System: AMES SALMONELLA TYPHIMURIUM, Strain/Indicator: TA1535, Metabolic Activation: RAT, LIVER, S-9, AROCLOR 1254, Method: STANDARD PLATE) was “inactive; negative”, the mutagenic call (Test System: AMES SALMONELLA TYPHIMURIUM, Strain/Indicator: TA1537, Metabolic Activation: HAMSTER, LIVER, S-9, AROCLOR 1254, Method: STANDARD PLATE) was “inactive; negative” and the mutagenic call (Test System: AMES SALMONELLA TYPHIMURIUM, Strain/Indicator: TA1537, Metabolic Activation: NONE, Method: STANDARD PLATE) was “inactive; negative”. For the same compound, the mutagenic call (Test System: AMES SALMONELLA TYPHIMURIUM, Strain/Indicator: TA1537, Metabolic Activation: RAT, LIVER, S-9, AROCLOR 1254, Method: STANDARD PLATE) was “inactive; negative”, the mutagenic call (Test System: AMES SALMONELLA TYPHIMURIUM, Strain/Indicator: TA1538, Metabolic Activation: HAMSTER, LIVER, S-9, AROCLOR 1254, Method: STANDARD PLATE) was “inactive; negative” and the mutagenic call (Test System: AMES SALMONELLA TYPHIMURIUM, Strain/Indicator: TA1538, Metabolic Activation: NONE, Method: STANDARD PLATE) was “inactive; negative”. The mutagenic call (Test System: AMES SALMONELLA TYPHIMURIUM, Strain/Indicator: TA1538, Metabolic Activation: RAT, LIVER, S-9, AROCLOR 1254, Method: STANDARD PLATE) was “inactive; negative”, the mutagenic call (Test System: MOUSE LYMPHOMA, Strain/Indicator: L5178Y (TK+/TK-), Metabolic Activation: NONE, Method: SUSPENSION/PLATE) was “active; positive. reevaluation of results: equivocal” and the mutagenic call (Test System: MOUSE LYMPHOMA, Strain/Indicator: L5178Y (TK+/TK-), Metabolic Activation: RAT, LIVER, S-9, AROCLOR 1254, Method: SUSPENSION/PLATE) was “active; positive. reevaluation of results: positive”.
